The subject of one data set is Male Wistar rats. Kind of data set: Rat carrageenan paw edema test. In kind it is in vivo. To be noted: 5 mg/kg body weight, oral, paw volume 3 hours after carrageenan, read-out: Rat Paw Edema model % inhibition. How it is done:
Rat Carrageenan Paw Edema Test
The carrageenan paw edema test is performed as described by Winter et al (Proc. Soc. Exp. Biol. Med, 111, 544, 1962). Male Wistar rats are selected and the body weights are equivalent within each group. The rats are fasted for eighteen hours with free access to water. The rats are dosed orally with the test compound suspended in vehicle containing 0.5% methylcellulose. The control rats are administered the vehicle alone. After an hour, the rats are injected with 0.1 ml of 1% Carrageenan solution in 0.9% saline into the sub-plantar surface of the right hind paw. Paw volume is measured using water plethysmograph before and after 3 hours of carrageenan injection. The average of foot swelling in drug treated animals is compared with that of control animals. Anti-inflammatory activity is expressed as the percentage inhibition of edema compared with control group [Arzneim-Forsch/Drug Res., 43(I), 1, 44-50,1993; Ottemess and Bliven, Laboratory Models for Testing NSAIDs, In Non-Steroidal Anti-Inflammatory Drugs, (J. Lombardino, ed. 1985)]. In order to evaluate their role on the ulcer formation, the animals are sacrificed and the stomach is taken out and flushed with 1% formalin. The stomach is opened along the greater curvature. The haemorrhagic puncta and sulci are identified microscopically and images are captured. The stomach lesions are calculated.
(The carrageenan paw model is a standard test of acute inflammation.)

A further data set has as its target T1, COX-2 (Homo sapiens, UniProt P35354).
T1 construct: incubation of human blood with lipopolysaccharide (LPS), which induces COX-2 production in the blood; endogenous in cells; host or cells: fresh human whole blood from volunteers, treated with aspirin and then LPS
T1 sequence (P35354 18-604): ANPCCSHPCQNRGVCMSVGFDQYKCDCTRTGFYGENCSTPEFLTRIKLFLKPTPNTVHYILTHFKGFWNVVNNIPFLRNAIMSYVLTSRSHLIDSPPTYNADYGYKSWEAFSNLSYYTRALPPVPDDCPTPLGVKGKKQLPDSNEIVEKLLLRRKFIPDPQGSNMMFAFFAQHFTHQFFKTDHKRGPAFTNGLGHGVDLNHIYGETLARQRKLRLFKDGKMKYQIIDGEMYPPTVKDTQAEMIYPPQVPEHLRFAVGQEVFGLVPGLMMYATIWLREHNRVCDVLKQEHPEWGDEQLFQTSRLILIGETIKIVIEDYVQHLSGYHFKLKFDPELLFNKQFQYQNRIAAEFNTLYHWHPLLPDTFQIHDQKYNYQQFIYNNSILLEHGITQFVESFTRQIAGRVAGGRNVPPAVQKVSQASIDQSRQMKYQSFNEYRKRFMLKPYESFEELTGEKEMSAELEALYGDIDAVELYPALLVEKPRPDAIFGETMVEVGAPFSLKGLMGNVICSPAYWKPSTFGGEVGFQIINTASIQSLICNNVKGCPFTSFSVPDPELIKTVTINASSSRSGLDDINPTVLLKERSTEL
Put plainly: Human whole blood assay, COX-2 inhibition (PGE2 ELISA after LPS). In kind it is cell-based. To be noted: LPS 24 h. How it is done:
In Vivo Evaluation of Cyclooxygenase-2 (COX-2) Inhibition Activity
The COX-2 inhibition activities of the compounds illustrated in the examples are determined by the following method.
Human whole blood provides a protein and cell rich milieu appropriate for the study of biochemical efficacy of anti-inflammatory compounds such as selective COX-2 inhibitors. […] This is correlating with the observation that COX-2 inhibitors have no effect on prostaglandin E2 (PGE2) production in normal blood. These inhibitors are active only after incubation of human blood with lipopolysaccharide (LPS), which induces COX-2 production in the blood.
Fresh blood is collected in tubes containing potassium EDTA by vein puncture from make volunteers. The subjects should have no apparent inflammatory conditions and not taken NSAIDs for at least 7 days prior to blood collection. Blood is treated with aspirin in vitro (10 μg/ml, at time zero) to inactivate COX-1, and then with LPS (10 μg/ml) along with test agents or vehicle. The blood is incubated for 24 h at 37° C., after which the tubes are centrifuged, the plasma is separated and stored at −80° C. (J. Pharmacol. Exp. Ther, 271, 1705, 1994; Proc. Natl. Acad. Sci. USA., 96, 7563, 1999). The plasma is assayed for PGE2 using Cayman ELISA kit as per the procedure outlined by the manufacturer (Cayman Chemicals, Ann Arbor, USA).

The test system of the next data set is TNF-α. Put plainly: TNF-α production in LPS-stimulated human whole blood. To be noted: LPS 4 h. In kind it is cell-based. The method, then:
Tumor Necrosis Factor Alpha (TNF-α)
This assay determines the effect of test compounds on the production of TNF-α in human whole blood. TNF-α assay is carried out as described by Armin hatzelmann and Christian Schudt (J Pharm Exp Ther 297, 261, 2001). Compounds are tested for their ability to inhibit the activity of TNF-α in human whole blood. The test compounds are pre-incubated for 15 minutes at 37° C. and then stimulated with Lipopolysaccharide (Salmonella abortus equi, 1 μg/ml) for 4 h at 37° C. in 5% CO2. The levels of TNF-α are estimated using Enzyme linked Immunosorbent assay performed in a 96 well format as per the procedure of the manufacturer (Cayman Chemical, Ann Arbor, USA).

For the next data set, the system named is IL-6. Put plainly: IL-6 production in LPS-stimulated human whole blood. In kind it is cell-based. To be noted: LPS 4 h. How it is done: This assay determines the effect of test compounds on the production of IL-6 from human whole blood. Compounds are tested for their ability to downregulate the production of IL-6 in activated whole blood. The test compounds are pre-incubated for 15 minutes at 37° C. and then stimulated with Lipopolysaccharide (Salmonella abortus equi, 1 μg/ml) for 4 h at 37° C. in 5% CO2. The levels of Interleukin-6 are estimated using Enzyme linked Immunosorbent assay performed in a 96 well format as per the procedure of the manufacturer (Cayman Chemical, Ann Arbor, USA).

In the next data set the test system is NCI-H460. Put plainly: DTP human tumor cell line one-dose prescreen, NCI-H460. It counts as cell-based. To be noted: 48 hours, Alamar Blue, test/control, read-out: Percentage growth Lung NCI-H460. How it is done:
(§1) DTP Human Tumor Cell Line Screen
(§2) Methodology of the In Vitro Cancer Screen
(§3) The current assay utilizes a 384 well plate format and fluorescent staining technologies resulting in greater screening capacity for testing of synthetic samples.
(§4) The cell lines of the cancer-screening panel are grown in RPMI 1640 medium containing 5% fetal bovine serum and 2 mM L-glutamine. For a typical screening experiment, cells are inoculated into 96 well microtiter plates in 100 μL. After cell inoculation, the microtiter plates are incubated at 37° C., 5% CO2, 95% air and 100% relative humidity for 24 h prior to addition of experimental drugs. The cells are plated a densities of 5000 cells/well (MCF7), 1000 cells/well (NC1—H460), and 7500 cells/well (SF-268) to allow for varying doubling time of the cell lines. Each plate contains all three cell lines, a series of dilutions of standard agents, total kill wells and appropriate controls. Plates are incubated under standard conditions for 24 hours prior to addition of experimental compounds or extracts.
(§5) Addition of Experimental Agents (Pure Compounds)
(§6) Experimental compounds are solubilized in dimethyl sulfoxide (DMSO) at 400-times the desired maximum test concentration (maximum final DMSO concentration of 0.25%) and stored frozen. Compounds are then diluted with complete media with 0.1% gentamicin sulfate (5 μl of test sample in 100% DMSO is added to 565 μl of complete medium). 20 μl of this solution is then dispensed into test wells containing 50 μl of cell suspension to yield a test concentration of 1.00E-04M.
(§7) Two standard drugs, meaning that their activities against the cell lines are well documented, are tested against each cell line: NSC 19893 (5-FU) and NSC 123127 (Adriamycin).
(§8) After compound addition, plates are incubated at standard conditions for 48 hours, 10 μl/well Alamar Blue is added and the plates are incubated for an additional 4 hours. Fluorescence is measured using an excitation wavelength of 530 nm and an emission wavelength of 590 nm.
(§9) Calculation of Percent Test Cell Growth/Control (Untreated) Cell Growth (T/C)
(§10) Percent growth is calculated on a plate-by-plate basis for test wells relative to control wells. Percent Growth is expressed as the ratio of fluorescence of the test well to the average fluorescence of the control wells x 100.
Background: Resazurin is reduced to fluorescent resorufin, in cell work by metabolically active cells.

The subject of another data set is MCF-7. Put plainly: DTP human tumor cell line one-dose prescreen, MCF-7. It counts as cell-based. The settings on record: MCF7, 48 hours, Alamar Blue, test/control, read-out: Percentage growth Breast MCF-7. How it is done:
as §1, §2, §3, §4, §5, §6, §7, §8, §9, §10

In a further data set the test system is SF-268. Put plainly: DTP human tumor cell line one-dose prescreen, SF-268. In kind it is cell-based. To be noted: 48 hours, Alamar Blue, test/control, read-out: Percentage growth CNS SF-268. The method, then:
as §1, §2, §3, §4, §5, §6, §7, §8, §9, §10

The values that follow come from US7365069B2, “Pyrimidone derivatives” (Bexel Pharmaceuticals Inc., priority 2002, dated 2008).

Molecule `CSc1nc(-c2ccc(S(C)(=O)=O)cc2)n(-c2ccc(C(C)C)cc2)c(=O)c1C#N` [Example 11, 5-cyano-1-(4-isopropylphenyl)-2-[4-(methylsulfonyl)phenyl]-4-(methylthio)-6-oxo-1,6-dihydropyrimidine] registered a melting point of 211 to 212 °C. In addition, the inhibition in vivo at 5 mg/kg with Male Wistar rats was 63.8%. At COX-2, this molecule had an inhibition at 0.25 µM of 31.1%. Further, 0.25 µM produced 63.8% inhibition in the data set on TNF-α. For the same molecule, the inhibition at 0.25 µM in the data set with IL-6 came to 70.8%.
On to `CSc1nc(-c2ccc(S(C)(=O)=O)cc2)n(-c2ccc(C)c(C)c2)c(=O)c1C#N` [Example 12, 5-cyano-1-(3,4-dimethylphenyl)-2-[4-(methylsulfonyl)phenyl]-4-(methylthio)-6-oxo-1,6-dihydropyrimidine], for which the melting point is 245 to 247 °C. Also, the inhibition in vivo at 5 mg/kg in the data set with Male Wistar rats worked out at 41.2%. The molecule also registered an inhibition at 0.25 µM at COX-2 of 36.5%. In the data set on TNF-α, this molecule came in with an inhibition at 0.25 µM of 27.2%. The inhibition at 0.25 µM with IL-6 came out at 28.7%.
Take `COc1ccc(-n2c(-c3ccc(SC)cc3)nc(SC)c(C#N)c2=O)cc1` [Example 16, 5-cyano-1-(4-methoxyphenyl)-4-(methylthio)-2-[4-(methylthio)phenyl]-6-oxo-1,6-dihydropyrimidine]: the melting point was in the range of 214 to 216 °C. The same molecule came in with an inhibition at 10 µM with TNF-α of 59.8%. For the same molecule, the activity at 100 µM in the data set on NCI-H460 was 95%. The activity at 100 µM in the data set with MCF-7 stood at 90%.
As for `CSc1nc(-c2ccccc2)n(-c2ccc(F)cc2)c(=O)c1C#N` [Example 17, 5-cyano-1-(4-fluorophenyl)-4-(methylthio)-2-phenyl-6-oxo-1,6-dihydropyrimidine], the melting point lay in the range of 204 to 205 °C. At COX-2, this molecule showed an inhibition at 0.25 µM of 16.2%. The inhibition at 10 µM with TNF-α stood at 47.4%. In the data set on IL-6, this molecule returned an inhibition at 0.25 µM of 16.2%.
Molecule `CSc1ccc(-n2c(-c3ccc(C)cc3)nc(SC)c(C#N)c2=O)cc1` [Example 20, 5-cyano-2-(4-methylphenyl)-4-(methylthio)-1-[4-(methylthio)phenyl]-6-oxo-1,6-dihydropyrimidine] came in with a melting point of 230 to 233 °C. Besides, at 0.25 µM the inhibition on COX-2 was 7.67%. In the data set with TNF-α, this molecule returned an inhibition at 1 µM of 61.4%.
`CSc1ccc(-n2c(-c3cccnc3)nc(SC)c(C#N)c2=O)cc1` [Example 27, 5-cyano-4-(methylthio)-1-[4-(methylthio)phenyl]-6-oxo-2-pyridin-3-yl-1,6-dihydropyrimidine] had a melting point of 212 to 215 °C. The activity at 100 µM with NCI-H460 was 14%. In addition, in the data set with MCF-7, the activity at 100 µM was 23%. In the data set with SF-268, the activity at 100 µM came to 51%.
On to `CCOC(=O)c1c(SC)nc(-c2ccc(SC)cc2)n(-c2ccc(F)cc2)c1=O` [Example 42, ethyl 1-(4-fluorophenyl)-4-(methylthio)-2-[4-(methylthio)phenyl]-6-oxo-1,6-dihydropyrimidine-5-carboxylate], for which the melting point fell in the range of 151 to 155 °C. For the same molecule, the inhibition at 0.1 µM against COX-2 (0.1 μM) stood at 37.6%. This molecule also showed an inhibition at 0.1 µM in the data set with TNF-α (0.1 μM) of 49.6%. In the data set with IL-6 (0.1 μM), this molecule had an inhibition at 0.1 µM of 59.7%.
With `CCOC(=O)c1c(SC)nc(-c2ccc(F)cc2)n(-c2ccc(SC)cc2)c1=O` [Example 43, ethyl 2-(4-fluorophenyl)-4-(methylthio)-1-[4-(methylthio)phenyl]-6-oxo-1,6-dihydropyrimidine-5-carboxylate], the melting point was 166 to 169 °C. The molecule also came in with an inhibition at 1 µM against COX-2 of 27.5%. In the data set on TNF-α, this molecule gave an inhibition at 1 µM of 36.4%. The molecule also yielded an inhibition at 0.25 µM in the data set on IL-6 of 10.4%. Further, the activity at 100 µM in the data set on NCI-H460 came to 79%. Further, the activity at 100 µM in the data set with MCF-7 worked out at 68%.
In turn, `CNc1nc(-c2ccc(SC)cc2)n(-c2ccc(C)cc2)c(=O)c1C#N` [Example 54, 5-cyano-4-(methylamino)-1-(4-methylphenyl)-2-[4-(methylthio)phenyl]-6-oxo-1,6-dihydropyrimidine] registered a melting point of 268 to 271 °C. On COX-2, the inhibition at 0.25 µM is 72.1%. In the data set with TNF-α, this molecule showed an inhibition at 1 µM of 15.6%. Further, in the data set with IL-6 (1 μM), the inhibition at 1 µM is 15.5%.
Molecule `CNc1nc(-c2ccc(SC)cc2)n(-c2ccc(C)c(C)c2)c(=O)c1C#N` [Example 55, 5-cyano-1-(3,4-dimethylphenyl)-4-(methylamino)-2-[4-(methylthio)phenyl]-6-oxo-1,6-dihydropyrimidine] gave a melting point of 199 to 205 °C. In addition, testing at 1 µM against COX-2 gave an inhibition of 8.2%. The same molecule showed an inhibition at 1 µM with TNF-α of 54.4%.

The term inhibition denotes the share of the control response that was lost under treatment. A low value points to a response near the control. By melting point is commonly meant the temperature, or range, at which the solid turns liquid.
